Measured values from ChEMBL document CHEMBL1146465, “Three new oleanane-type triterpenes from Ludwigia octovalvis with cytotoxic activity against two human cancer cell lines” (J Nat Prod, 2004).

What was measured:
[1] = test system: KB; test: Cytotoxicity against human KB cells after 72 hrs by methylene blue assay; type: functional, cell-based
[2] = test system: HT-29; test: Cytotoxicity against human HT-29 cells after 72 hrs by methylene blue assay; type: functional, cell-based; details: HT-29, 72 h

SMILES	IC50 [1] [µM]	IC50 [2] [µM]
COc1cc([C@@H]2c3cc4c(cc3[C@@H](O[C@@H]3O[C@@H]5CO[C@@H](C)O[C@H]5[C@H](O)[C@H]3O)[C@H]3COC(=O)[C@H]23)OCO4)cc(OC)c1O [ETOPOSIDE]	1.1	2.3
CC1(C)CC[C@]2(C(=O)O)CC[C@]3(C)C(=CC[C@@H]4[C@@]5(C)CC[C@H](O)[C@@](C)(COC(=O)/C=C/c6ccc(O)cc6)[C@@H]5CC[C@]43C)[C@@H]2C1	1.3	2.4
CC1(C)CC[C@]2(C(=O)O)CC[C@]3(C)C(=CC[C@@H]4[C@@]5(C)CC[C@H](OC(=O)/C=C\c6ccc(O)cc6)[C@@](C)(CO)[C@@H]5CC[C@]43C)[C@@H]2C1	1.2	2.1
CC1(C)CC[C@]2(C(=O)O)CC[C@]3(C)C(=CC[C@@H]4[C@@]5(C)CC[C@H](O)[C@@](C)(COC(=O)/C=C\c6ccc(O)cc6)[C@@H]5CC[C@]43C)[C@@H]2C1	1.6	3.6
